Data: the NIST ThermoML archive (doi:10.1021/je060490w)

How the values were obtained:
[1] = for surface tension liquid-gas: Pendant drop shape; for mass density: 101.33 kPa, Liquid
[2] = xn = mol fraction of the nth substance listed; conditions: Pendant drop shape

Cc1cc(C)cc(C)c1 [1,3,5-trimethylbenzene]
[1]
Conditions | mass density [kg/m3] | surface tension liquid-gas [mN/m]
298.15 K | 861.12 | 28.05
308.15 K | 852.94 | 27.21
313.15 K | 848.82 | 26.78

Cc1cc(C)cc(C)c1 [1,3,5-trimethylbenzene] + CCOC(C)OCC
[2], x2 = 0
Conditions | surface tension liquid-gas [mN/m]
298.15 K | 28.05
308.15 K | 27.21
313.15 K | 26.78

Cc1cc(C)cc(C)c1 [1,3,5-trimethylbenzene] + COC(C)(C)OC
[2], x2 = 0
Conditions | surface tension liquid-gas [mN/m]
298.15 K | 28.05
308.15 K | 27.21
313.15 K | 26.78

COC(C)(C)OC [3,3-dimethyl-2,4-dioxapentane]
[1]
Conditions | mass density [kg/m3] | surface tension liquid-gas [mN/m]
298.15 K | 845.09 | 21.46
308.15 K | 834.41 | 20.43
313.15 K | 828.99 | 19.91

COC(C)(C)OC [3,3-dimethyl-2,4-dioxapentane] + Cc1cc(C)cc(C)c1
[2]
Conditions | surface tension liquid-gas [mN/m]
298.15 K, x1 = 0.05 | 27.6
298.15 K, x1 = 0.1002 | 27.14
298.15 K, x1 = 0.1494 | 26.72
298.15 K, x1 = 0.2001 | 26.28
298.15 K, x1 = 0.252 | 25.88
298.15 K, x1 = 0.3001 | 25.47
298.15 K, x1 = 0.3496 | 25.1
298.15 K, x1 = 0.3998 | 24.7
298.15 K, x1 = 0.4525 | 24.33
298.15 K, x1 = 0.4998 | 23.98
298.15 K, x1 = 0.5497 | 23.62
298.15 K, x1 = 0.5996 | 23.26
298.15 K, x1 = 0.6506 | 22.93
298.15 K, x1 = 0.7002 | 22.64
298.15 K, x1 = 0.7503 | 22.37
298.15 K, x1 = 0.7993 | 22.11
298.15 K, x1 = 0.8511 | 21.89
298.15 K, x1 = 0.8986 | 21.7
298.15 K, x1 = 0.9494 | 21.57
298.15 K, x1 = 1 | 21.46
308.15 K, x1 = 0.0562 | 26.65
308.15 K, x1 = 0.0995 | 26.21
308.15 K, x1 = 0.1481 | 25.77
308.15 K, x1 = 0.2023 | 25.29
308.15 K, x1 = 0.2502 | 24.87
308.15 K, x1 = 0.3002 | 24.49
308.15 K, x1 = 0.3497 | 24.06
308.15 K, x1 = 0.3982 | 23.71
308.15 K, x1 = 0.4499 | 23.31
308.15 K, x1 = 0.4964 | 22.95
308.15 K, x1 = 0.5493 | 22.54
308.15 K, x1 = 0.6001 | 22.17
308.15 K, x1 = 0.6502 | 21.85
308.15 K, x1 = 0.7006 | 21.52
308.15 K, x1 = 0.7454 | 21.27
308.15 K, x1 = 0.7999 | 20.99
308.15 K, x1 = 0.8492 | 20.74
308.15 K, x1 = 0.8998 | 20.57
308.15 K, x1 = 0.9492 | 20.48
308.15 K, x1 = 1 | 20.43
313.15 K, x1 = 0.0511 | 26.21
313.15 K, x1 = 0.1023 | 25.71
313.15 K, x1 = 0.1503 | 25.26
313.15 K, x1 = 0.2014 | 24.79
313.15 K, x1 = 0.2506 | 24.39
313.15 K, x1 = 0.3013 | 23.95
313.15 K, x1 = 0.3498 | 23.56
313.15 K, x1 = 0.396 | 23.19
313.15 K, x1 = 0.4486 | 22.77
313.15 K, x1 = 0.5014 | 22.36
313.15 K, x1 = 0.5508 | 21.99
313.15 K, x1 = 0.5931 | 21.68
313.15 K, x1 = 0.6488 | 21.31
313.15 K, x1 = 0.6988 | 20.99
313.15 K, x1 = 0.7499 | 20.66
313.15 K, x1 = 0.7994 | 20.4
313.15 K, x1 = 0.8388 | 20.24
313.15 K, x1 = 0.8976 | 20
313.15 K, x1 = 0.944 | 19.95
313.15 K, x1 = 1 | 19.91

COC(C)(C)OC [3,3-dimethyl-2,4-dioxapentane] + Cc1ccc(C)c(C)c1
[2]
Conditions | surface tension liquid-gas [mN/m]
298.15 K, x1 = 0.0523 | 28.69
298.15 K, x1 = 0.0998 | 28.17
298.15 K, x1 = 0.1497 | 27.62
298.15 K, x1 = 0.1996 | 27.12
298.15 K, x1 = 0.2517 | 26.6
298.15 K, x1 = 0.3009 | 26.13
298.15 K, x1 = 0.3494 | 25.68
298.15 K, x1 = 0.3987 | 25.24
298.15 K, x1 = 0.4502 | 24.79
298.15 K, x1 = 0.4994 | 24.37
298.15 K, x1 = 0.5498 | 23.95
298.15 K, x1 = 0.5996 | 23.55
298.15 K, x1 = 0.6508 | 23.17
298.15 K, x1 = 0.6997 | 22.82
298.15 K, x1 = 0.7498 | 22.51
298.15 K, x1 = 0.7992 | 22.24
298.15 K, x1 = 0.8508 | 22
298.15 K, x1 = 0.8997 | 21.79
298.15 K, x1 = 0.9489 | 21.62
298.15 K, x1 = 1 | 21.46
308.15 K, x1 = 0.0515 | 27.59
308.15 K, x1 = 0.0998 | 27.02
308.15 K, x1 = 0.1499 | 26.47
308.15 K, x1 = 0.2001 | 25.95
308.15 K, x1 = 0.2475 | 25.5
308.15 K, x1 = 0.302 | 24.97
308.15 K, x1 = 0.3512 | 24.53
308.15 K, x1 = 0.3995 | 24.12
308.15 K, x1 = 0.4485 | 23.66
308.15 K, x1 = 0.4989 | 23.23
308.15 K, x1 = 0.5542 | 22.77
308.15 K, x1 = 0.5998 | 22.4
308.15 K, x1 = 0.6518 | 22.02
308.15 K, x1 = 0.6987 | 21.69
308.15 K, x1 = 0.7455 | 21.44
308.15 K, x1 = 0.7962 | 21.11
308.15 K, x1 = 0.851 | 20.86
308.15 K, x1 = 0.8973 | 20.71
308.15 K, x1 = 0.9456 | 20.55
308.15 K, x1 = 1 | 20.43
313.15 K, x1 = 0.0506 | 27.03
313.15 K, x1 = 0.0996 | 26.42
313.15 K, x1 = 0.1509 | 25.86
313.15 K, x1 = 0.1994 | 25.36
313.15 K, x1 = 0.2511 | 24.87
313.15 K, x1 = 0.3032 | 24.38
313.15 K, x1 = 0.3475 | 23.95
313.15 K, x1 = 0.3981 | 23.52
313.15 K, x1 = 0.4501 | 23.07
313.15 K, x1 = 0.5 | 22.66
313.15 K, x1 = 0.5487 | 22.25
313.15 K, x1 = 0.5993 | 21.84
313.15 K, x1 = 0.6504 | 21.45
313.15 K, x1 = 0.6993 | 21.12
313.15 K, x1 = 0.7486 | 20.8
313.15 K, x1 = 0.7987 | 20.51
313.15 K, x1 = 0.8417 | 20.31
313.15 K, x1 = 0.8929 | 20.12
313.15 K, x1 = 0.9487 | 19.97
313.15 K, x1 = 1 | 19.91
